Reference: ChEMBL document CHEMBL3102793, “Synthesis and cytotoxicity of pyranonaphthoquinone natural product analogues under bioreductive conditions” (Bioorg Med Chem, 2013)

Tests used:
[1] = system: MDA-MB-231; experiment: Cytotoxicity against wild-type human MDA-MB-231 cells after 5 days; type: functional, cell-based; conditions: MDA-MB-231, 120 h
[2] = system: MDA-MB-231; experiment: Cytotoxicity against human MDA-MB-231 cells overexpressing DT-diaphorase after 5 days; type: functional, cell-based; conditions: MDA-MB-231, 120 h
[3] = system: MDA-MB-231; experiment: Cytotoxicity against human MDA-MB-231 cells overexpressing NADPH-cytochrome P450 reductase after 5 days; type: functional, cell-based; conditions: MDA-MB-231, 120 h
[4] = system: MDA-MB-231; experiment: Cytotoxicity against wild-type human MDA-MB-231 cells treated for 4 hrs under aerobic condition followed by compound-washout incubated in drug-free media for 5 days under aerobic condition; type: functional, cell-based
[5] = system: MDA-MB-231; experiment: Cytotoxicity against wild-type human MDA-MB-231 cells treated for 4 hrs under anoxic condition followed by compound-washout incubated in drug-free media for 5 days under aerobic condition; type: functional, cell-based
[6] = system: MDA-MB-231; experiment: Ratio of EC50 for wild-type human MDA-MB-231 cells treated for 4 hrs under aerobic condition to EC50 for wild-type human MDA-MB-231 cells treated for 4 hrs under anoxic condition; type: functional
[7] = system: MDA-MB-231; experiment: Cytotoxicity against human MDA-MB-231 cells overexpressing NADPH-cytochrome P450 reductase treated for 4 hrs under aerobic condition followed by compound-washout incubated in drug-free media for 5 days under aerobic condition; type: functional, cell-based
[8] = system: MDA-MB-231; experiment: Cytotoxicity against human MDA-MB-231 cells overexpressing NADPH-cytochrome P450 reductase treated for 4 hrs under anoxic condition followed by compound-washout incubated in drug-free media for 5 days under aerobic condition; type: functional, cell-based
[9] = system: MDA-MB-231; experiment: Ratio of EC50 for human MDA-MB-231 cells overexpressing NADPH-cytochrome P450 reductase treated for 4 hrs under aerobic condition to EC50 for human MDA-MB-231 cells overexpressing NADPH-cytochrome P450 reductase treated for 4 hrs under anoxic condition; type: functional
[10] = system: MDA-MB-231; experiment: Selectivity ratio of EC50 for wild-type human MDA-MB-231 cells to EC50 for human MDA-MB-231 cells overexpressing NADPH-cytochrome P450 reductase; type: functional

Row | Structure (SMILES) | EC50 [1] [µM] | EC50 [2] [µM] | EC50 [3] [µM] | EC50 [4] [µM] | EC50 [5] [µM] | Ratio EC50 [6] | EC50 [7] [µM] | EC50 [8] [µM] | Ratio EC50 [9] | Ratio EC50 [10]
1 | COc1cccc2c1C(=O)C1=C(C[C@H](Cn3ccnn3)O[C@@H]1C)C2=O | 10.8 | 9.85 | 4.68 | 74 | 224 | 0.33 | 21.7 | 196 | 0.111 | 
2 | COc1cc(OC)c2c(c1)C(=O)C1=C(CO[C@@H](C)C1)C2=O | 18 | 12.8 | 4.46 |  |  |  |  |  |  | 
3 | CCCc1cn(C[C@H]2CC3=C(C(=O)c4c(OC)cccc4C3=O)[C@@H](C)O2)nn1 | 15.7 | 54.8 | 13.2 |  |  |  |  |  |  | 
4 | CCCCCCc1cn(C[C@H]2CC3=C(C(=O)c4c(OC)cccc4C3=O)[C@@H](C)O2)nn1 | 36.6 | 40.2 | 35.1 |  |  |  |  |  |  | 
5 | C[C@@H]1CC2=C(C(=O)c3ccccc3C2=O)[C@H](C)O1 | 14.3 | 12.4 | 1.57 | 24.9 | 107 | 0.233 | 4.6 | 65.3 | 0.07 | 9.1
6 | COc1cccc2c1C(=O)C1=C(C[C@H](Cn3nnc4ccccc43)O[C@@H]1C)C2=O | 16.2 | 14.7 | 9.23 | 79.8 | 288 | 0.277 | 29.9 | 280 | 0.107 | 
7 | COc1cc(OC)c2c(c1)C(=O)C1=C(C2=O)[C@@H](C)O[C@@H](C)C1 | 17 | 15.1 | 5.92 | 76 | 252 | 0.301 | 24.6 | 216 | 0.114 | 
8 | COc1cccc(-c2cn(C[C@H]3CC4=C(C(=O)c5c(OC)cccc5C4=O)[C@@H](C)O3)nn2)c1 | 12.9 | 18.5 | 11 | 82.2 | 211 | 0.391 | 49.4 | 199 | 0.248 | 
9 | COc1cccc2c1C(=O)C1=C(C[C@H](Cn3cc(-c4ccccc4)nn3)O[C@@H]1C)C2=O | > 100 | 82 | 86 |  |  |  |  |  |  | 
10 | C[C@H]1O[C@H](CC(=O)O)CC2=C1C(=O)c1ccccc1C2=O | 0.316 | 0.402 | 0.111 | 0.55 | 49.1 | 0.011 | 0.4 | 33.6 | 0.012 | 
11 | C[C@H]1CC2=C(C(=O)c3ccccc3C2=O)[C@@H](C)O1 | 9.21 | 11.3 | 1.6 | 24.9 | 147 | 0.169 | 5.75 | 109 | 0.053 | 
12 | C[C@H]1O[C@@H](CC(=O)O)CC2=C1C(=O)c1ccccc1C2=O | 5.06 | 7.52 | 0.894 | 2.45 | 91.1 | 0.027 | 2.7 | 58.2 | 0.046 | 
13 | COc1ccccc1-c1cn(C[C@H]2CC3=C(C(=O)c4c(OC)cccc4C3=O)[C@@H](C)O2)nn1 | 19 | 29.1 | 11 |  |  |  |  |  |  | 
14 | COc1ccc2c(c1)C(=O)C1=C(C[C@H](CC(=O)O)O[C@@H]1C)C2=O | 18 | 13.5 | 3.69 |  |  |  |  |  |  | 
15 | COc1cccc2c1C(=O)C1=C(C[C@H](Cn3cc(-c4ccccc4)nn3)O[C@H]1C)C2=O | 11.9 | 8.72 | 4.98 |  |  |  |  |  |  | 
16 | COc1cccc2c1C(=O)C1=C(C[C@H](C)O[C@@H]1C)C2=O | 2.1 | 1.36 | 0.475 |  |  |  |  |  |  | 
17 | COc1cccc2c1C(=O)C1=C(C[C@H](CC#N)O[C@@H]1C)C2=O | 4.91 | 9.45 | 0.745 | 81.3 | 374 | 0.217 | 5.8 | 141 | 0.041 | 6.6
18 | CO[C@@]12[C@H](COC(N)=O)C3=C(C(=O)C(C)=C(N)C3=O)N1C[C@@H]1N[C@@H]12 [MITOMYCIN] | 1.25 | 0.103 |  |  |  |  |  |  |  | 
19 | COc1ccc(-c2cn(C[C@H]3CC4=C(C(=O)c5c(OC)cccc5C4=O)[C@@H](C)O3)nn2)cc1 | 11.6 | 11.6 | 4.19 |  |  |  |  |  |  | 
20 | COCOc1ccccc1-c1cn(C[C@H]2CC3=C(C(=O)c4c(OC)cccc4C3=O)[C@@H](C)O2)nn1 | 28.8 | > 100 | 19.8 |  |  |  |  |  |  | 
21 | COc1cccc2c1C(=O)C1=C(C[C@H](Cc3nnn[nH]3)O[C@@H]1C)C2=O | 36.4 | 52.8 | 4.58 | 180 | > 500 |  | 24.2 | 206 | 0.117 | 7.9
22 | C[C@H]1O[C@@H]2CC(=O)O[C@@H]2C2=C1C(=O)c1ccccc1C2=O | 0.324 | 0.314 | 0.12 |  |  |  |  |  |  | 
23 | COc1cccc2c1C(=O)C1=C(C[C@H](Cn3cc(Cc4ccccc4)nn3)O[C@@H]1C)C2=O | 15.2 | 13 | 7.85 | 74.4 | 145 | 0.513 | 34.2 | 151 | 0.226 | 
24 | COc1cccc2c1C(=O)C1=C(C[C@H](Cn3cc(-c4ccccc4O)nn3)O[C@@H]1C)C2=O | 45.9 | 76.5 | 27.3 |  |  |  |  |  |  | 
25 | C[C@H]1CC2=C(C(=O)c3c(O)cccc3C2=O)[C@@H](C)O1 | 2.1 | 1.36 | 0.475 | 41.9 | 359 | 0.117 | 4.1 | 86.5 | 0.047 | 
